Where a name gives a salt, the structure may show the parent alone.
Columns and labels:
5HT2 receptors [1] = biological target: T1, 5HT2 receptors (Rattus norvegicus, UniProt P14842); test: Antagonism of serotonin contraction in isolated rat external jugular vein (apparent antagonist dissociation constant); set-up: species or system Male Wistar rats; conditions: serotonin agonist, antagonist incubated one hour, 37° C., read-out: -log KB ± S.E. (apparent antagonist dissociation constant) (converted)
T1 construct: Contraction to serotonin was evaluated in the jugular vein since this tissue produces marked responses to serotonin in the absence of alpha receptors; from tissue; host or cells: external jugular vein of male Wistar rats
T1 sequence (P14842 whole entry): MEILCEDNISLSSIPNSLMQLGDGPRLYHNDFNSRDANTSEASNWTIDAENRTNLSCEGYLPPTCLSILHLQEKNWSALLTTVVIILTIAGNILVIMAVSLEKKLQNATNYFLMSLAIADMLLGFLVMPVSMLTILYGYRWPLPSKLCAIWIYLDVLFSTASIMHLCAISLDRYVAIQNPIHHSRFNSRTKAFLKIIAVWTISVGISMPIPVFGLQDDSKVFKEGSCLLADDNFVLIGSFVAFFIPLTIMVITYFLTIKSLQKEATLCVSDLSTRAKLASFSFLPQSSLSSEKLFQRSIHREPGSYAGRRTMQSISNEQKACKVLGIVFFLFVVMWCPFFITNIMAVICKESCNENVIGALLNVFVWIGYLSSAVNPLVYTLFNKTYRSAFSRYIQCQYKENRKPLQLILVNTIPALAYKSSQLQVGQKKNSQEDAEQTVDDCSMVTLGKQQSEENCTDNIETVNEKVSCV
Experimental: An initial optimum resting force of 1 and 4 g was applied to the jugular vein and aorta, respectively. […] Exp. Ther., 205, 400 (1978). Alpha receptor antagonist activity was evaluated in the aorta.
The -log KB ±S.E. value obtained for 1-fluoromehtyl-2-fluoroethyl 1-isopropyl-9,10-dihydrolysergate maleate was 8.97±0.22.

[2] = system: vascular alpha adrenergic, dopaminergic and histaminergic receptors; conditions: in words; Cohen I; cited from earlier work
5HT2 receptors [3] = conditions: in words; Garbrecht compounds; cited from earlier work
5HT2 receptors [4] = conditions: in words; mediated by 5HT2 receptors; Cohen I; cited from earlier work

SMILES	Kb (5HT2 receptors [1]) [nM]	affinity for vascular alpha adrenergic, dopaminergic and histaminergic receptors [2]	peripheral serotonin antagonist activity against 5HT2 receptors (5HT2 receptors [3])	antagonism of vascular contraction to serotonin (5HT2 receptors [4])
CC(C)n1cc2c3c(cccc31)[C@H]1C[C@@H](C(=O)OC(CF)CF)CN(C)[C@@H]1C2 [1-fluoromethyl-2-fluoroethyl-1-isopropyl-9,10-dihydrolysergate maleate]	1.07			
CC(O)C(C)OC(=O)[C@@H]1C[C@@H]2c3cccc4c3c(cn4C(C)C)C[C@H]2N(C)C1 (stereo partly drawn) [LY53857, 1-isopropyl-6-methyl-8β-(1-methyl-2-hydroxy)propoxycarbonyl-5R-ergoline]		minimal affinity	most active peripheral serotonin antagonist from Garbrecht	potent antagonist of vascular contraction to serotonin

Reference: patent publication US4683237A, “Fluoroalkyl esters of dihydrolysergic acid useful as 5HT2 receptor antagonists” (Eli Lilly and Company, priority 1985, dated 1987)
